Source: ChEMBL document CHEMBL4673231, “Novel isoniazid embedded triazole derivatives: Synthesis, antitubercular and antimicrobial activity evaluation” (Bioorg Med Chem Lett, 2020)
The source made the active and inactive calls. No cut-off for these calls is given here.

Legend:
Aspergillus niger = assay: Antifungal activity against Aspergillus niger assessed as diameter of inhibition zone at 1 mg/ml incubated for 24 hrs by agar well diffusion assay; format: functional; details: for zone of inhibition at 1000 µg/mL: read-out: DIZ
Saccharomyces cerevisiae = assay: Antifungal activity against Saccharomyces cerevisiae assessed as diameter of inhibition zone at 1 mg/ml incubated for 24 hrs by agar well diffusion assay; format: functional; details: for zone of inhibition at 1000 µg/mL: read-out: DIZ
Staphylococcus aureus = assay: Antibacterial activity against Staphylococcus aureus assessed as diameter of inhibition zone at 1 mg/ml incubated for 24 hrs by agar well diffusion assay; format: functional
Shigella boydii = assay: Antibacterial activity against Shigella boydii assessed as diameter of inhibition zone at 1 mg/ml incubated for 24 hrs by agar well diffusion assay; format: functional
Salmonella typhi = assay: Antibacterial activity against Salmonella typhi assessed as diameter of inhibition zone at 1 mg/ml incubated for 24 hrs by agar well diffusion assay; format: functional; details: for diameter of the inhibition zone (DIZ): Salmonella enterica subsp. enterica serovar Typhi; for zone of inhibition at 1000 µg/mL: Salmonella enterica, read-out: DIZ
Escherichia coli = assay: Antibacterial activity against Escherichia coli assessed as diameter of inhibition zone at 1 mg/ml incubated for 24 hrs by agar well diffusion assay; format: functional; details: for zone of inhibition at 1000 µg/mL: read-out: DIZ
Bacillus subtilis = assay: Antibacterial activity against Bacillus subtilis assessed as diameter of inhibition zone at 1 mg/ml incubated for 24 hrs by agar well diffusion assay; format: functional
[1] = tested on: Salmonella enterica subsp. enterica serovar Abony; assay: Antibacterial activity against Salmonella enterica subsp. enterica serovar Abony assessed as diameter of inhibition zone at 1 mg/ml incubated for 24 hrs by agar well diffusion assay; format: functional
[2] = tested on: Mycobacterium tuberculosis; assay: Antimycobacterial activity against Mycobacterium tuberculosis H37Rv assessed as reduction in microbial growth incubated for 7 days by alamar blue assay; format: functional; details: 168 h, time 7 day
Bacillus cereus = assay: Antibacterial activity against Bacillus cereus assessed as diameter of inhibition zone at 1 mg/ml incubated for 24 hrs by agar well diffusion assay; format: functional
[3] = Cytotoxicity against mouse RAW264.7 cells assessed as reduction in cell viability at 25 ug/ml incubated for 48 hrs by MTT assay; format: cell-based; details: at 25 µg/mL, read-out: INH
Pseudomonas aeruginosa = assay: Antibacterial activity against Pseudomonas aeruginosa assessed as diameter of inhibition zone at 1 mg/ml incubated for 24 hrs by agar well diffusion assay; format: functional; details: for zone of inhibition at 1000 µg/mL: read-out: DIZ
Klebsiella aerogenes = assay: Antibacterial activity against Enterobacter aerogenes assessed as diameter of inhibition zone at 1 mg/ml incubated for 24 hrs by agar well diffusion assay; format: functional; details: for zone of inhibition at 1000 µg/mL: read-out: DIZ

Row | Compound | zone of inhibition at 1000 µg/mL (Aspergillus niger) [mm] | zone of inhibition at 1000 µg/mL (Saccharomyces cerevisiae) [mm] | diameter of the inhibition zone (DIZ) (Staphylococcus aureus) | diameter of the inhibition zone (DIZ) (Shigella boydii) | diameter of the inhibition zone (DIZ) (Salmonella typhi) | zone of inhibition at 1000 µg/mL (Escherichia coli) [mm] | diameter of the inhibition zone (DIZ) (Bacillus subtilis) | diameter of the inhibition zone (DIZ) [1] | MIC [2] [µg/mL] | diameter of the inhibition zone (DIZ) (Bacillus cereus) | cytotoxicity at 48 h, 25 ug/ml [3] [%] | diameter of the inhibition zone (DIZ) (Saccharomyces cerevisiae) | zone of inhibition at 1000 µg/mL (Pseudomonas aeruginosa) [mm] | diameter of the inhibition zone (DIZ) (Klebsiella aerogenes) | zone of inhibition at 1000 µg/mL (Salmonella typhi) [mm] | diameter of the inhibition zone (DIZ) (Escherichia coli) | diameter of the inhibition zone (DIZ) (Aspergillus niger) | diameter of the inhibition zone (DIZ) (Pseudomonas aeruginosa) | zone of inhibition at 1000 µg/mL (Klebsiella aerogenes) [mm] | zone of inhibition at 1000 µg/mL (Bacillus subtilis; read-out: DIZ) [mm]
1 | OC(Cn1cncn1)(Cn1cncn1)c1ccc(F)cc1F [FLUCONAZOLE] | 30 | 30 | – | – | – | – | – | – | – | – | – | – | – | – | – | – | – | – | – | –
2 | Cc1ccc([N+](=O)[O-])cc1-n1cc(COc2ccc([N+](=O)[O-])cc2/C=N/NC(=O)c2ccncc2)nn1 | 13 | – | inactive | inactive | inactive | 12 | inactive | inactive | 0.78 | inactive | 23.9 | inactive | 9 | inactive | – | – | – | – | – | –
3 | NNC(=O)c1ccncc1 [ISONIAZID] | – | – | – | – | – | – | – | – | 0.1 | – | – | – | – | – | – | – | – | – | – | –
4 | Cc1cc(C)c(-n2cc(COc3ccc([N+](=O)[O-])cc3/C=N/NC(=O)c3ccncc3)nn2)c(C)c1 | – | – | inactive | inactive | – | – | inactive | inactive | 0.78 | inactive | 27.7 | inactive | – | inactive | 10 | inactive | inactive | inactive | – | –
5 | O=C(N/N=C/c1cc([N+](=O)[O-])ccc1OCc1cn(-c2ccccc2)nn1)c1ccncc1 | – | 10 | inactive | inactive | inactive | 12 | inactive | inactive | 0.78 | inactive | 25.7 | – | 13 | – | – | – | inactive | – | 14 | –
6 | O=C(N/N=C/c1cc([N+](=O)[O-])ccc1OCc1cn(-c2ccccc2F)nn1)c1ccncc1 | – | – | inactive | inactive | – | – | – | inactive | 12.5 | inactive | 19.3 | inactive | 13 | – | 10 | inactive | inactive | – | 10 | 11
7 | CC[C@@H](CO)NCCN[C@@H](CC)CO [ETHAMBUTOL] | – | – | – | – | – | – | – | – | 3.12 | – | – | – | – | – | – | – | – | – | – | –
8 | CO[C@H]1/C=C/O[C@@]2(C)Oc3c(C)c(O)c4c(O)c(c(/C=N/N5CCN(C)CC5)c(O)c4c3C2=O)NC(=O)/C(C)=C\C=C\[C@H](C)[C@H](O)[C@@H](C)[C@@H](O)[C@@H](C)[C@H](OC(C)=O)[C@@H]1C [RIFAMPIN] | – | – | – | – | – | – | – | – | 0.2 | – | – | – | – | – | – | – | – | – | – | –
9 | O=C(O)c1cn(C2CC2)c2cc(N3CCNCC3)c(F)cc2c1=O [CIPROFLOXACIN] | – | – | – | – | – | – | – | – | 1.56 | – | – | – | – | – | – | – | – | – | – | –
10 | O=C(N/N=C/c1cc([N+](=O)[O-])ccc1OCc1cn(-c2ccc(Cl)cc2)nn1)c1ccncc1 | 16 | 10 | inactive | inactive | – | – | inactive | inactive | 25 | inactive | – | – | 15 | inactive | 13 | inactive | – | – | – | –
